Data reported in patent US5633230A, “Treatment of cytomegalovirus infection” (priority 1994, dated 1997).

Experiments:
HCMV strain AD-169 = assay: drug combination plaque reduction study (MacSynergy); assay type: cell-based; conditions: human CMV-infected MRC-5 cells, plaque counts
Method: For use in this study, HCMV strain AD-169 was obtained from the American Type Culture Collection, Rockville, Md. and ganciclovirresistant clinical isolate of HCMV, strain D16, was obtained from Kenneth D. Thompson, Loyola University Medical Center, Maywood, Ill. Host MRC-5 cells were cultured in a medium of Basal Medium Eagle (BME) (GIBCO), fetal bovine serum (FBS) (Hyclone Laboratories), 0.035% NaHCO3 and without antibiotics.
Test medium for dilution of virus and for preparation and dilution of compounds was Dulbecco's modified Eagle medium (DMEM), 2% FBS, 0.1% NaHCO3, 50 μg gentamicin/ml.
For drug combination experiments, each of AV-9, DHPG, foscarnet, and […] was prepared in test medium at double the highest concentration used. Each of these compound preparations was then diluted by serial 2-fold dilutions in test medium (except for AZT, which was diluted by serial half-log dilutions).
Growth medium was decanted from established monolayers of MRC-5 cells in 24-well tissue culture plates. Compound dilutions were placed in designated wells of the plates at 0.8 ml/well, with test medium only placed in virus control or cell control wells, and the plates were placed at 37° C. Four wells were used for each different compound dilution. After 24 hr of pre-treatment incubation, the medium was aspirated from each well of the plates. One ml of virus, diluted in test medium was placed in each well except those to be used for cell controls or those to be used for toxicity controls. One ml of sterile test medium was placed in each of these cell or toxicity control wells. The plates were centrifuged at 2200 rpm for 30 minutes at room temperature to allow the virus to adsorb. Medium was aspirated from each well of the plates. The proper individual compound concentrations or combinations were placed in test wells (0.8 ml/well, 4 wells/dilution) or in toxicity control wells. Test medium without compound was added (0.8 ml/well) to each cell control and virus control well. All plates were incubated at 37° C. in a moist atmosphere of 5% CO2, 95% air. […] After 15 minutes, the stain was removed, cells were rinsed in tap water until the water was clear, and the plates were inverted and dried at room temperature. Plaques were counted by use of a dissecting microscope. The plaque counts were entered in the MacSynergy™ program of Prichard and Shipman and 3-D plots were made.

[1] = blood levels after single subcutaneous injection of labelled compound; assay type: in vivo; conditions: mice
Method: Blood levels in mice resulting from single subcutaneous injection of a 53 μg dose of the labelled compound were also evaluated. […] Peak levels were maintained for about 20 minutes. At 40 minutes and 2 hours, blood levels had declined to about 80% of peak values. […] Evidently, the compound AV-9 reaches the bloodstream rapidly.

[2] = single s.c. injection, 53 μg labelled compound

For `CC(=O)N[C@H](CCCNC(=N)N)C(=O)N[C@H](CCCNC(=N)N)C(=O)N[C@H](CCCNC(=N)N)C(=O)N[C@H](CCCNC(=N)N)C(=O)N[C@H](CCCNC(=N)N)C(=O)N[C@H](CCCNC(=N)N)C(=O)N[C@H](CCCNC(=N)N)C(=O)N[C@H](CCCNC(=N)N)C(=O)N[C@H](CCCNC(=N)N)C(N)=O` [AV-9, acetyl-[D-Arg]9 -NH2], the “antagonism in combination with phosphonoformic acid (foscarnet)” value (HCMV strain AD-169) was “insignificant amount of antagonism”, the “synergy in combination with AZT” value (HCMV strain AD-169) was “No synergy” and the “synergy in combination with DHPG” value (HCMV strain AD-169) was “intense synergy”. The “synergy in combination with phosphonoformic acid (foscarnet)” value (HCMV strain AD-169) was “moderate amount of synergy”, the “blood level relative to peak values” ([1]; at 40 minutes and 2 hours, single s.c. 53 μg) was “about 80%” and the “blood level relative to peak” value ([1]; at 4 hour, single s.c. 53 μg) was “about 10%”. For the same molecule, the blood level ([1]; at 8 hours and 24 hours, single s.c. 53 μg) was “threshold of detection”, the “time near peak blood levels are maintained” value ([1]; single s.c. 53 μg, summary statement) was 20 to 120 min and the near-peak blood level [1, 2] was “around 1 μg/ml”. For the same molecule, the “time peak blood levels were maintained” value [1, 2] was “about 20 minutes” and the “time to near-peak blood levels following injection” value [1, 2] was 5 min.
